This assay concerns congestive heart failure dogs, coronary perfused left ventricular preparation. Kind of assay: VF organization index analysis, pacing-induced heart failure dogs. The assay is classed as in vivo. Also on record: key to OI Spatial CoV / OI Temporal CoV: coefficient of variance = SD/mean. The note with it: CHF dogs with PFD. The source says:
Animal Models: Twenty-four dogs weighing 25-30 Kg were divided into three groups: control (n=11), congestive heart failure (n=7), and congestive heart failure with the antifibrotic drug pirfenidone (n=6). Heart Failure (CHF) was induced in 7 dogs via four weeks of rapid ventricular pacing via a lead placed in the RV and pulse generator set to pace at 240 bpm followed by ablation of the AV node to create complete heart block, as described in Li, et al., Circulation 1999; 100:87-95. Ventricular function was monitored weekly with transthoracic echocardiography for 4 weeks. At 4 weeks, the optical mapping study was performed.
Heart Failure with Pirfenidone (PFD): Heart failure was induced in 6 dogs as described above and PFD was administered as described in Lee et al., Circulation 2006; 114; 1703-12. Oral PFD (800 mg 3 times per day; InterMune, Brisbane, Calif.) was started 2 days before the initiation of pacing and was discontinued >6 half-lives (24 hours) before the optical mapping study.
With an optical mapping system described in Wu et al., J Cardiovasc Electrophysiol 1998; 9:1336-47, optical recordings were then made from 4-cm^2 area on 3 surfaces of the preparation (epicardial, endocardial (including the papillary muscle, and transmural) by a 16×16 photodiode array (C4657 Hamamatsu, Bridgewater, N.J.) that recorded 256 simultaneous optical action potentials. During optical recordings from a preparation, contractility was blocked with 15 mM 2,3-butadione monoxime (BDM; Sigma-Aldrich)11. Plunge electrodes were placed on the recording surface around the field of view for both pacing and monitoring. Two plunge electrodes were dedicated for recording a bipolar signal for monitoring the electrical activity of the preparation. VF was initiated with either extra stimuli or with rapid burst pacing at a cycle length of 50 ms, a pulse width of 9.9 ms, and an output of 9.9 mA. Several 4-s episodes of VF were recorded on each surface in each preparation. Activation movies of the VF were then viewed, and the activation patterns were determined. After termination of VF, signals were obtained during pacing at 250 ms and isochronal maps of activation were constructed to look at conduction. Activation patterns and wave-front direction during VF were determined from raw fluorescence movies (isopotential). […] VF was defined as rapid and irregular activations on the bipolar signal used for monitoring the electrical activity of the preparation.
Signal Processing and Frequency Domain Analysis: The signals obtained from the optical mapping recordings were sampled at 2,000 Hz, and for each signal the dominant frequency (DF) was determined and the organization was calculated as described Everett, et al., IEEE Trans Biomed Eng 2001; 48:969-78. Briefly, a fast Fourier transform (FFT) was calculated on the digitally filtered waveform. The data were detrended and multiplied by a Hamming window. The largest peak of the resulting magnitude spectrum was identified, and the positions of the harmonic peaks were determined on the basis of its position. The areas under the largest peak and three of its harmonic peaks were each calculated over a 1-Hz window. This produced an area under four peaks. The total area of the spectrum was calculated from 2 Hz up to but not including the fifth harmonic peak. The ratio of the power under the harmonic peaks to the total power in this range was calculated, and the resulting number was defined as the organization index (OI). The OI was theorized to represent the organization of AF for that signal at that period in time. To calculate the variance of the DFs, spatial coefficient of variance (SD/mean) of the DFs during a single episode of AF among all recording sites and temporal coefficient of variance of average DFs from among AF episodes for each mapping field within each preparation were calculated. Discrete, stable, high frequency areas were noted. […]

SMILES strings stand for the structures.

Consider `Cc1ccc(=O)n(-c2ccccc2)c1` [pirfenidone], for which, under “Endocardium”, the “Max OI” value stood at 0.61 ± 0.05, the “Mean OI” value turned out to be 0.45 ± 0.05, the “OI Spatial CoV” value was found to be 0.16 ± 0.03 and the “OI Temporal CoV” value was 0.13 ± 0.01. For the setting “Epicardium”, the “Max OI” value came out at 0.62 ± 0.05, the “Mean OI” value worked out at 0.44 ± 0.05, the “OI Spatial CoV” value was determined as 0.17 ± 0.01 and the “OI Temporal CoV” value is listed as 0.14 ± 0.01. For the same molecule, for the setting “Transmural”, the “Max OI” value turned out to be 0.65 ± 0.06, the “Mean OI” value was 0.48 ± 0.05, the “OI Spatial CoV” value came out at 0.17 ± 0.03 and the “OI Temporal CoV” value was found to be 0.13 ± 0.01.

(Values after patent publication US20110218515A1, “Methods for Treating Acute Myocardial Infarctions and Associated Disorders” (The Regents of the University of California, priority 2009, published 2011).)
